What was measured:
recombinant human DHODH = biological target: T1, recombinant human DHODH (Homo sapiens, UniProt Q02127); test: DHODH enzyme reaction inhibition test (DCIP-coupled assay); type: biochemical; details: recombinant human DHODH 0.175 μg/mL, DCIP absorbance 600 nm, 50 minutes, pH 8.0; read-out: Enzyme reaction inhibitory effect (IC50)
T1 construct: DHODH, 31-395aa, Human, His tag, E. coli, ATGP1615; His tag; purchased ATGen Co. Ltd. ATGP1615; host or cells: E. coli
Description: The DHODH enzyme assay was carried out with reference to “Benjamin Bader, Wolfgang Knecht, Markus Fries, and Monika Loffler, Expression, Purification, and Characterization of Histidine-Tagged Rat and Human Flavoenzyme Dihydroorotate Dehydrogenase, Protein Expression and Purification, 1998, 13, 414-422.”
The DHODH activity was evaluated using an enzyme assay system that is coupled with an assay in which a blue coloring agent 2,6-dichlorophenolindophenol (DCIP, available from MP Biomedicals, LLC, MP150118) is quenched. Purified recombinant human DHODH (DHODH, 31-395aa, Human, His tag, E. coli, ATGP1615) was purchased from ATGen Co. Ltd. The enzyme assay was carried out in a 384-well plate using a buffer solution containing 100 mmol/L Hepes (available from Dojindo Laboratories, 342-01375), 400 mmol/L NaCl (available from FUJIFILM Wako Pure Chemical Corporation, 191-01665), 10% Glycerol (available from FUJIFILM Wako Pure Chemical Corporation, 075-00616), 0.05% Triton X-100 (available from Sigma-Aldrich Co., LLC, T8787-100ML), 0.2 mmol/L Ubiquinone-10 (available from FUJIFILM Wako Pure Chemical Corporation, 216-00761), 0.1 mmol/L DHO (L-dihydroorotic acid, available from Sigma-Aldrich Co., LLC, D7128), 0.5% DMSO (dimethylsulfoxide, available from FUJIFILM Wako Pure Chemical Corporation, 047-29353), 0.175 μg/mL DHODH, and 0.12 mmol/L DCIP and having a pH adjusted to 8.0 by adding 5 mol/L potassium hydroxide (available from FUJIFILM Wako Pure Chemical Corporation, 168-21815). A test compound with a predetermined concentration was added using Biomek NX (available from Beckman Coulter Inc.), and the enzyme reaction was started by adding the substrate. The enzyme activity was assessed by measuring the decrease in DCIP absorbance (600 nm) for 50 minutes using an EnVision plate-reading spectrophotometer (available from PerkinElmer, Inc.).
The enzyme reaction inhibition rate at each test compound concentration was determined, and the 50% enzyme reaction inhibition concentration [IC50 (nmol/L)] was calculated using XLfit. Enzyme reaction inhibition rate (%)=(amount of luminescence in test compound-added well)/(amount of luminescence in DMSO-added well)×100
The abbreviations in the table have the following meanings. • A: IC50 value<10 nmol/L • B: 10 nmol/L≤IC50 value<100 nmol/L • C: 100 nmol/L≤IC50 value

[1] = system: human myeloid leukemia cell line HL60; test: Cell growth test, HL60 (CellTiter-Glo); type: cell-based; details: HL-60, 72 h, HL60 cells, 3 days, CellTiter-Glo luminescence, read-out: Cell growth inhibitory effect (GI50)
Description: The cell growth test was carried out using the human myeloid leukemia cell line HL60 (available from ATCC, CRL-240). As a culture medium of HL60 cells, RPMI 1640 (available from FUJIFILM Wako Pure Chemical Corporation, 189-02025) supplemented with 10% fetal bovine serum (available from Thermo Fisher Scientific, Inc., 10437-028), and 1% penicillin-streptomycin (10,000 U/mL, available from Thermo Fisher Scientific, Inc., 15140-122) was used. HL60 cells were seeded on a 384-well plate (available from Corning Inc., 4588) at a cell density of 1×10^3 cells/20 μL/well. After culturing overnight, 5 μL of the test compound having a predetermined concentration was added, and 3 days later, 25 μL of CellTiter-Glo (registered trademark) Luminescent Cell Viability Assay (available from Promega Corporation, G7573) was added, and then the amount of luminescence was measured using an EnVision plate reader (available from PerkinElmer, Inc.). Since the amount of luminescence is proportional to the intracellular concentration of adenosine triphosphate (ATP), the amount of luminescence was used as an indicator of the number of viable cells. The growth inhibitory concentration for each test compound concentration was calculated by the following expression.
The growth inhibition rate at each test compound concentration was determined, and the 50% growth inhibitory concentration [GI50 (nmol/L)] was calculated using XLfit. Growth inhibition rate (%)=(amount of luminescence in test compound-added well)/(amount of luminescence in DMSO-added well)×100
The abbreviations in the table have the following meanings. • A: GI50 value<100 nmol/L • B: 100 nmol/L≤GI50 value<1,000 nmol/L • C: 1,000 nmol/L≤GI50 value

T1 sequence (Q02127 31-395): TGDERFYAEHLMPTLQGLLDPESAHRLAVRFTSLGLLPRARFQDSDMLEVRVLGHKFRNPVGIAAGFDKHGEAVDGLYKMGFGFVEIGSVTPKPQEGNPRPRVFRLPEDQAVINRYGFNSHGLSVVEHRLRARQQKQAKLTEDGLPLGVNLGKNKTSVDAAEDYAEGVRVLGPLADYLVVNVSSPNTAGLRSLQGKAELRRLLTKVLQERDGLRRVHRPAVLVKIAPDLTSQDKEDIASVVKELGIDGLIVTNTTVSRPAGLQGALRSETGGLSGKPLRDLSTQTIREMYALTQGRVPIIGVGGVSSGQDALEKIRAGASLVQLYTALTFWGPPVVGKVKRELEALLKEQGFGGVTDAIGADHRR

Row | SMILES | IC50 (recombinant human DHODH) [nM] | GI50 [1] [nM]
1 | O=Cc1nc(C2CC2)cnc1Nc1cccc(C2=CCOCC2)c1OCC(F)(F)F [Example 1-14, 6-cyclopropyl-3-((3-(3,6-dihydro-2H-pyran-4-yl)-2-(2,2,2-trifluoroethoxy)phenyl)amino)pyrazine-2-carbaldehyde] | ≥ 100 | ≥ 1000
2 | O=c1[nH]nc(-c2nc(C3CC3)cnc2Nc2cccc(C3=CCOCC3)c2OCC(F)(F)F)o1 [Example 1-9, 5-(6-cyclopropyl-3-((3-(3,6-dihydro-2H-pyran-4-yl)-2-(2,2,2-trifluoroethoxy)phenyl)amino)pyrazin-2-yl)-1,3,4-oxadiazol-2(3H)-one] | 10 to 100 | 100 to 1000
3 | OCc1nc(C2CC2)cnc1Nc1cccc(C2=CCOCC2)c1OCC(F)(F)F [Example 1-3] | 10 to 100 | 100 to 1000
4 | O=c1[nH]c(-c2nc(C3CC3)cnc2Nc2cccc(C3=CCOCC3)c2OCC(F)(F)F)no1 [Example 1-7, 3-(6-cyclopropyl-3-((3-(3,6-dihydro-2H-pyran-4-yl)-2-(2,2,2-trifluoroethoxy)phenyl)amino)pyrazin-2-yl)-1,2,4-oxadiazol-5(4H)-one] | < 10 | 100 to 1000
5 | CNNC(=O)c1nc(C2CC2)cnc1Nc1cccc(C2=CCOCC2)c1OCC(F)(F)F [Example 1-12, 6-cyclopropyl-3-((3-(3,6-dihydro-2H-pyran-4-yl)-2-(2,2,2-trifluoroethoxy)phenyl)amino)-N′-methylpyrazine-2-carbohydrazide] | 10 to 100 | 100 to 1000
6 | N#CNC(=O)c1cc(C2CC2)ccc1Nc1cncc(C2=CCOCC2)c1OCC(F)(F)F [Example 3-2] | < 10 | ≥ 1000
7 | C[C@H](Oc1c(Nc2ccc(C3CC3)cc2C(=O)O)cncc1C1=CCOCC1)C(F)(F)F [Example 2-6] | < 10 | < 100
8 | NCc1nc(C2CC2)cnc1Nc1cccc(C2=CCOCC2)c1OCC(F)(F)F [Example 1-17, 3-(aminomethyl)-5-cyclopropyl-N-(3-(3,6-dihydro-2H-pyran-4-yl)-2-(2,2,2-trifluoroethoxy)phenyl)pyrazine-2-amine] | ≥ 100 | ≥ 1000
9 | N#Cc1ccc(-c2cccc(Nc3ncc(C4CC4)nc3C(=O)O)c2OC(F)F)cc1 [Example 2-11] | < 10 | 100 to 1000
10 | Cc1ccc(-c2cccc(Nc3ncc(C4CC4)nc3C(=O)O)c2OCC(F)(F)F)c(C)n1 [Example 1-4, 6-cyclopropyl-3-((3-(2,6-dimethylpyridin-3-yl)-2-(2,2,2-trifluoroethoxy)phenyl)amino)pyrazine-2-carboxylic acid] | 10 to 100 | 100 to 1000
11 | C[C@H](Oc1c(Nc2ncc(C3CC3)nc2C(=O)NC#N)cccc1C1=CCOCC1)C(F)(F)F [Example 3-31] | < 10 | < 100
12 | CCc1cnc(Nc2cccc(C3=CCOCC3)c2OCC(F)(F)F)c(C(=O)NS(C)(=O)=O)n1 [Example 3-66] | < 10 | 100 to 1000
13 | Cc1cnc(Nc2cccc(C3=CCOCC3)c2OCC(F)(F)F)c(C(=O)NS(C)(=O)=O)n1 [Example 3-67] | 10 to 100 | 100 to 1000
14 | CS(=O)(=O)NCc1nc(C2CC2)cnc1Nc1cccc(C2=CCOCC2)c1OCC(F)(F)F [Example 1-15, N-((6-cyclopropyl-3-((3-(3,6-dihydro-2H-pyran-4-yl)-2-(2,2,2-trifluoroethoxy)phenyl)amino)pyrazin-2-yl)methyl)methanesulfonamide] | ≥ 100 | ≥ 1000
15 | FC(F)(F)COc1c(Nc2ncc(C3CC3)nc2-c2nnn[nH]2)cccc1C1=CCOCC1 [Example 1-6] | < 10 | < 100
16 | O=C(O)c1cc(C2CC2)cnc1Nc1cccc(C2=CCOCC2)c1OCC(F)(F)F [Example 2-5] | < 10 | < 100
17 | CC(C)c1cnc(Nc2cccc(C3=CCOCC3)c2OCC(F)(F)F)c(C(=O)NS(C)(=O)=O)n1 [Example 3-65] | < 10 | 100 to 1000
18 | C[C@H](Oc1c(Nc2ccc(C3CC3)cc2C(=O)O)ccnc1C1=CCOCC1)C(F)(F)F [Example 1-18] | < 10 | < 100
19 | CS(=O)(=O)NC(=O)c1cc(C2CC2)cnc1Nc1cccc(C2=CCOCC2)c1OCC(F)(F)F [Example 3-24] | < 10 | < 100
20 | CS(=O)(=O)NC(=O)c1nc(C2CC2)cnc1Nc1cccc(-c2ccc(F)cc2)c1OCC(F)(F)F [Example 3-56] | < 10 | < 100
21 | N#Cc1cccc(-c2cccc(Nc3ncc(C4CC4)nc3C(=O)O)c2OCC(F)(F)F)c1 [Example 2-9] | < 10 | < 100
22 | N#CNC(=O)c1nc(C2CC2)cnc1Nc1cc(F)cc(C2=CCOCC2)c1OCC(F)(F)F [Example 3-38] | < 10 | < 100
23 | N#CNC(=O)c1nc(C2CC2)cnc1Nc1cccc(-c2ccc(C#N)cc2)c1OCC(F)(F)F [Example 3-33] | < 10 | < 100

The remaining lines, values ahead:

Row | IC50 (recombinant human DHODH) [nM] | GI50 [1] [nM] | SMILES
24 | < 10 | < 100 | CCCc1c(Nc2ncc(C3CC3)nc2C(=O)NS(N)(=O)=O)cccc1C1CCOCC1 [Example 3-26]
25 | < 10 | < 100 | CS(=O)(=O)NC(=O)c1nc(C2CC2)cnc1Nc1cccc(C2CCOCC2)c1OC(F)F [Example 3-49]
26 | < 10 | < 100 | CCc1c(Nc2ncc(C3CC3)cc2C(=O)O)cccc1C1CCOCC1 [Example 2-10]
27 | 10 to 100 | 100 to 1000 | COS(=O)(=O)NC(=O)c1nc(C2CC2)cnc1Nc1cccc(C2=CCOCC2)c1OCC(F)(F)F [Example 3-19]
28 | < 10 | < 100 | N#CNC(=O)c1nc(C2CC2)cnc1Nc1cccc(C2CCOCC2)c1OCC(F)(F)F [Example 3-29]
29 | 10 to 100 | 100 to 1000 | CONC(=O)c1nc(C2CC2)cnc1Nc1cccc(C2CCOCC2)c1O[C@@H](C)C(F)(F)F [Example 3-12]
30 | < 10 | < 100 | NS(=O)(=O)NC(=O)c1cc(C2CC2)cnc1Nc1cccc(C2CCOCC2)c1OCC(F)(F)F [Example 3-35]
31 | 10 to 100 | 100 to 1000 | C[C@H](Oc1c(Nc2ncc(C3CC3)nc2C(=O)NS(C)(=O)=O)cccc1C1CCOCC1)C(F)(F)F [Example 3-13]
32 | 10 to 100 | 100 to 1000 | CNS(=O)(=O)NC(=O)c1nc(C2CC2)cnc1Nc1cccc(C2=CCOCC2)c1OCC(F)(F)F [Example 3-20]
33 | < 10 | < 100 | NS(=O)(=O)NC(=O)c1nc(C2CC2)cnc1Nc1cc(F)cc(C2CCOCC2)c1OC(F)F [Example 3-53]
34 | 10 to 100 | ≥ 1000 | O=C(NS(=O)(=O)C(F)(F)F)c1nc(C2CC2)cnc1Nc1cccc(C2=CCOCC2)c1OCC(F)(F)F [Example 3-18]
35 | < 10 | < 100 | C[C@H](Oc1c(Nc2ncc(C3CC3)nc2C(=O)NC#N)cccc1C1CCOCC1)C(F)(F)F [Example 3-14]
